Measurements: PMC12845239, “Development of Novel Proline- and Pipecolic Acid-Based Allosteric Inhibitors of Dengue and Zika Virus NS2B/NS3 Protease” (Pharmaceuticals, 2025)
Read-outs that look alike come from different tables or passages of the source.

Key:
DENV NS2B/NS3 = biological target: T1, DENV NS2B/NS3 (Dengue virus type 2, UniProt P29990); test: biochemical; conditions: for inhibition at 50 µM: read-out: DENV % inhibition at 50 µM; for inhibition at 50 µM / DENV % inhibition at 50 µM: 50 µM inhibitor, DENV-2 protease 100 nM, substrate 50 µM
T1 construct: the hydrophilic 40-residue core domain of NS2B (NS2B(H)-NS3pro); The used DENV protease construct contains the protease domain of NS3
T1 sequence (P29990 1398-1437): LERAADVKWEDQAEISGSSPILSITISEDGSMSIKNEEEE
T1 sequence (P29990 1476-1653): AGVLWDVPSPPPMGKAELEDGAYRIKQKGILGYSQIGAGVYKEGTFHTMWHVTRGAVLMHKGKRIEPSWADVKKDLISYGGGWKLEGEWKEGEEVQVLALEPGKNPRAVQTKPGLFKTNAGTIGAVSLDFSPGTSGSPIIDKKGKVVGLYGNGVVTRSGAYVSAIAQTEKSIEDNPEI

DENV-2 NS2B-NS3 protease = DENV-2 NS2B-NS3 protease (Dengue virus type 2, UniProt P29990); test: DENV2 Reporter Gene Assay (DENV2proHeLa); assay type: cell-based; conditions: for EC50: read-out: DENV2 proHeLa EC50; for inhibition at 25 µM: M-HeLa, read-out: DENV2 proHeLa % inhibition at 25 µM
DENV-2 NS2B-NS3 protease, sequence (P29990 1346-1653): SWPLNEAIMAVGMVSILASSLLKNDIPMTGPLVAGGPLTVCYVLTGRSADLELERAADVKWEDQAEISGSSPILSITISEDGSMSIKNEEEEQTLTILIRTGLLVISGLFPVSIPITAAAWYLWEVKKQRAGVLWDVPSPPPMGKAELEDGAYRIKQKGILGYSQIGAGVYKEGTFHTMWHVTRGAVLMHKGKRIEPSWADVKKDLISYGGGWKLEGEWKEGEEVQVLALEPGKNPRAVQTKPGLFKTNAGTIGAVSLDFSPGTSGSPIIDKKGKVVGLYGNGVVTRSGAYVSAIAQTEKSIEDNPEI
Method: The DENV2proHeLa assay was performed as published previously. Stable cells were seeded into 96-well plates with a density of 2 × 10^4 cells per well and treated immediately with inhibitors of the DENV protease in a final volume of 100 μL. After incubation for 24 h at 37 °C, the medium was removed, and cells were lysed by adding 25 μL of lysis buffer (Promega) for 15 min at room temperature. Luciferase activity was recorded using a FLUOstar omega plate reader (BMG Labtech, Ortenberg, Germany) with injections of 100 μL per well of coelenterazine (2.75 μM in PBS). Luminescence was recorded for 5 s. Each concentration was assayed in triplicate. The percentage of inhibition was calculated in relation to the untreated control. For EC50 calculations, data were fitted and calculated with Prism 6.1 (GraphPad Software, Inc., San Diego, CA, USA) using a 4-parameter nonlinear dose-response curve with background subtraction (wells without cells).

ZIKV NS2B/NS3 = ZIKV NS2B/NS3 (Zika virus, UniProt A0A024B7W1, R1467A/R1531G); test: ZIKV protease relative inhibition assay (fluorometric, Bz-Nle-Lys-Arg-Arg-AMC 10 µM); assay type: biochemical; conditions: 50 µM inhibitor, ZIKV protease 10 nM, substrate 10 µM
serine protease of DENV = tested on: serine protease of DENV; design: method as in PMID 31769670; conditions: cited from earlier work
serine protease of ZIKV = conditions: cited from earlier work
[1] = 25 µM, HeLa reporter cells, 24 h

Row | Compound | inhibition at 50 µM (DENV NS2B/NS3) [%] | ZIKV % inhibition at 50 µM (ZIKV NS2B/NS3) | IC50 (DENV NS2B/NS3) [µM] | inhibition at 25 µM (DENV-2 NS2B-NS3 protease; [1]) [%] | further results
1 | O=C(Nc1nc2cc(O)c(O)cc2s1)[C@@H]1CCCCN1S(=O)(=O)c1ccc([N+](=O)[O-])cc1 [Compound 22, (S)-N-(5,6-Dihydroxybenzo[d]thiazol-2-yl)-1-((4-nitrophenyl)sulfonyl)piperidine-2-carboxamide] | 59.8 | – | – | – | EC50 (DENV-2 NS2B-NS3 protease; HeLa reporter cells, 24 h): 13.4 ± 1.2 µM
2 | O=C(Nc1nc2cc(O)c(O)cc2s1)[C@@H]1CCCCN1S(=O)(=O)c1cccc(C(F)(F)F)c1 [Compound 18, (S)-N-(5,6-Dihydroxybenzo[d]thiazol-2-yl)-1-((3-(trifluoromethyl)phenyl)sulfonyl)piperidine-2-carboxamide] | 55.9 | 42.2% | – | – | EC50 (DENV-2 NS2B-NS3 protease; HeLa reporter cells, 24 h): 12.8 ± 0.99 µM
3 | (S)-N-(5,6-Dihydroxybenzo[d]thiazol-2-yl)-1-(3-(trifluoromethyl)benzoyl)pyrrolidine-2-carboxamide [Compound 9] | – | 56.5% | – | – | DENV % inhibition at 50 µM (DENV NS2B/NS3): 55.9%; DENV2 proHeLa % inhibition at 25 µM (DENV-2 NS2B-NS3 protease; [1]): 42.2%
4 | O=C(Nc1nc2cc(O)c(O)cc2s1)[C@@H]1CCCN1S(=O)(=O)c1ccccc1C(F)(F)F [Compound 2] | – | 49.6% | 5.1 ± 0.29 | 27.7 | –
5 | O=C(Nc1nc2cc(O)c(O)cc2s1)[C@@H]1CCCN1S(=O)(=O)c1ccc([N+](=O)[O-])cc1 [Compound 7, (S)-N-(5,6-Dihydroxybenzo[d]thiazol-2-yl)-1-((4-nitrophenyl)sulfonyl)pyrrolidine-2-carboxamide, reference compound] | – | – | 5 ± 0.37 | 43 | IC50 (serine protease of DENV): 8.58 µM; IC50 (serine protease of ZIKV): 930 nM
6 | (S)-N-(5,6-Dihydroxybenzo[d]thiazol-2-yl)-1-(4(trifluoromethyl)benzoyl)pyrrolidine-2-carboxamide [Compound 10] | – | 39.2% | – | – | DENV % inhibition at 50 µM (DENV NS2B/NS3): 16.8%; DENV2 proHeLa % inhibition at 25 µM (DENV-2 NS2B-NS3 protease; [1]): 15.4%
7 | O=C(Nc1nc2cc(O)c(O)cc2s1)[C@@H]1CCCN1S(=O)(=O)c1cccc(C(F)(F)F)c1 [Compound 3] | – | 36.6% | 5 ± 0.29 | 46.6 | –
8 | O=C(Nc1nc2cc(O)c(O)cc2s1)[C@H]1CCCCN1S(=O)(=O)c1ccccc1C(F)(F)F [Compound 23, (R)-N-(5,6-Dihydroxybenzo[d]thiazol-2-yl)-1-((2-(trifluoromethyl)phenyl)sulfonyl)piperidine-2-carboxamide] | – | 36.2% | 41.8 ± 2.2 | 18.5 | –
9 | O=C(Nc1nc2cc(O)c(O)cc2s1)[C@@H]1CCCCN1S(=O)(=O)c1ccc(C(F)(F)F)cc1 [Compound 19] | 51.3 | – | – | – | EC50 (DENV-2 NS2B-NS3 protease; HeLa reporter cells, 24 h): 20.3 ± 1.5 µM
10 | O=C(Nc1nc2cc(O)c(O)cc2s1)[C@H]1CCCCN1S(=O)(=O)c1ccc(C(F)(F)F)cc1 [Compound 25] | – | 48.4% | 22.3 ± 1.4 | 38 | –
11 | O=C(Nc1nc2cc(O)c(O)cc2s1)[C@H]1CCCCN1S(=O)(=O)c1cccc([N+](=O)[O-])c1 [Compound 27, (R)-N-(5,6-Dihydroxybenzo[d]thiazol-2-yl)-1-((3-nitrophenyl)sulfonyl)piperidine-2-carboxamide] | – | – | 35 ± 2.1 | – | EC50 (DENV-2 NS2B-NS3 protease; HeLa reporter cells, 24 h): 5.1 ± 0.53 µM
12 | O=C(Nc1nc2cc(O)c(O)cc2s1)[C@@H]1CCCN1S(=O)(=O)c1ccccc1[N+](=O)[O-] [Compound 5, (S)-N-(5,6-Dihydroxybenzo[d]thiazol-2-yl)-1-((2-nitrophenyl)sulfonyl)pyrrolidine-2-carboxamide] | – | – | 8 ± 0.52 | 18.5 | –
13 | O=C(Nc1nc2cc(O)c(O)cc2s1)[C@H]1CCCCN1S(=O)(=O)c1ccccc1[N+](=O)[O-] [Compound 26, (R)-N-(5,6-Dihydroxybenzo[d]thiazol-2-yl)-1-((2-nitrophenyl)sulfonyl)piperidine-2-carboxamide] | – | – | 38.9 ± 4 | 9.5 | –
14 | (S)-N-(5,6-Dihydroxybenzo[d]thiazol-2-yl)-1-(2-(trifluoromethyl)benzoyl)pyrrolidine-2-carboxamide [Compound 8] | – | n.i. | – | – | DENV % inhibition at 50 µM (DENV NS2B/NS3): n.i.; DENV2 proHeLa % inhibition at 25 µM (DENV-2 NS2B-NS3 protease; [1]): n.i.
15 | O=C(Nc1nc2cc(O)c(O)cc2s1)[C@H]1CCCN1S(=O)(=O)c1ccc([N+](=O)[O-])cc1 [Compound 16, (R)-N-(5,6-Dihydroxybenzo[d]thiazol-2-yl)-1-((4-nitrophenyl)sulfonyl)pyrrolidine-2-carboxamide] | 40.7 | – | – | 51.3 | –
16 | O=C(Nc1nc2cc(O)c(O)cc2s1)[C@H]1CCCCN1S(=O)(=O)c1ccc([N+](=O)[O-])cc1 [Compound 28, (R)-N-(5,6-Dihydroxybenzo[d]thiazol-2-yl)-1-((4-nitrophenyl)sulfonyl)piperidine-2-carboxamide] | – | – | 27 ± 1.6 | – | EC50 (DENV-2 NS2B-NS3 protease; HeLa reporter cells, 24 h): 9 ± 0.4 µM
17 | O=C(Nc1nc2cc(O)c(O)cc2s1)[C@@H]1CCCN1S(=O)(=O)c1ccc(C(F)(F)F)cc1 [Compound 4] | – | 35.4% | 5.6 ± 0.39 | 19.5 | –
18 | O=C(Nc1nc2cc(O)c(O)cc2s1)[C@H]1CCCCN1S(=O)(=O)c1cccc(C(F)(F)F)c1 [Compound 24, (R)-N-(5,6-Dihydroxybenzo[d]thiazol-2-yl)-1-((3-(trifluoromethyl)phenyl)sulfonyl)piperidine-2-carboxamide] | – | 34.5% | 30.8 ± 1.7 | – | EC50 (DENV-2 NS2B-NS3 protease; HeLa reporter cells, 24 h): 5.2 ± 0.43 µM
19 | O=C(Nc1nc2cc(O)c(O)cc2s1)[C@@H]1CCCCN1S(=O)(=O)c1ccccc1C(F)(F)F [Compound 17, (S)-N-(5,6-Dihydroxybenzo[d]thiazol-2-yl)-1-((2-(trifluoromethyl)phenyl)sulfonyl)piperidine-2-carboxamide] | 58.7 | 57.2% | – | 41.7 | –
20 | O=C(Nc1nc2cc(O)c(O)cc2s1)[C@@H]1CCCCN1S(=O)(=O)c1cccc([N+](=O)[O-])c1 [Compound 21, (S)-N-(5,6-Dihydroxybenzo[d]thiazol-2-yl)-1-((3-nitrophenyl)sulfonyl)piperidine-2-carboxamide] | – | – | – | – | DENV % inhibition at 50 µM (DENV NS2B/NS3): n.i.; EC50 (DENV-2 NS2B-NS3 protease; HeLa reporter cells, 24 h): 22 ± 1.5 µM
21 | O=C(Nc1nc2cc(O)c(O)cc2s1)[C@@H]1CCCCN1S(=O)(=O)c1ccccc1[N+](=O)[O-] [Compound 20, (S)-N-(5,6-Dihydroxybenzo[d]thiazol-2-yl)-1-((2-nitrophenyl)sulfonyl)piperidine-2-carboxamide] | 29.6 | – | – | 31.4 | –
22 | O=C(Nc1nc2cc(O)c(O)cc2s1)[C@H]1CCCN1S(=O)(=O)c1cccc([N+](=O)[O-])c1 [Compound 15, (R)-N-(5,6-Dihydroxybenzo[d]thiazol-2-yl)-1-((3-nitrophenyl)sulfonyl)pyrrolidine-2-carboxamide] | 16.9 | 54.6% | – | 26.9 | –
23 | O=C(Nc1nc2cc(O)c(O)cc2s1)[C@H]1CCCN1S(=O)(=O)c1ccccc1[N+](=O)[O-] [Compound 14, (R)-N-(5,6-Dihydroxybenzo[d]thiazol-2-yl)-1-((2-nitrophenyl)sulfonyl)pyrrolidine-2-carboxamide] | 13.5 | 68.5% | – | – | inhibition at 25 µM (DENV-2 NS2B-NS3 protease): 17.7%
24 | O=C(Nc1nc2cc(O)c(O)cc2s1)[C@@H]1CCCN1S(=O)(=O)c1cccc([N+](=O)[O-])c1 [Compound 6, (S)-N-(5,6-Dihydroxybenzo[d]thiazol-2-yl)-1-((3-nitrophenyl)sulfonyl)pyrrolidine-2-carboxamide] | – | – | 6.4 ± 0.52 | 23.5 | –
